According to ChEMBL document CHEMBL1131944, “Phospholipase A2-like catalytic antibody” (Bioorg Med Chem Lett, 1999):

Legend:
[1] = Compound was tested for the inhibition of antibody-catalyzed hydrolysis.
13C-1F6 = assay: Michaelis-Menten Kinetic rate constant in the hydrolysis by 13C-1F6 was determined.; assay type: ADME
[2] = The catalytic rate constant in the hydrolysis by 13C-1F6 was determined by Michaelis-Menten Kinetics.; assay type: ADME

| Compound | Ki [1] [µM] | Km (13C-1F6) [µM] | k cat [2] [s⁻¹] |
| --- | --- | --- | --- |
| CCCCCCCCCCP(=O)(O)OC(COCCCCCCCCCC(=O)OC)COP(=O)([O-])OCC[N+](C)(C)C (stereo not drawn) [ESTER OF PHOSPHOLIPID] | 10 | – | – |
| CCCCCCCCCC(=O)OCC(COP(=O)([O-])OCC[N+](C)(C)C)OC(=O)CCCCCCC (racemic) [ESTER OF PHOSPHOLIPID] | – | 71 | 0.00017 |
